The record followed here is PubChem BioAssay (NCI).

“And” between values parts separate entries of the source, which are not always exact repeats. Equal values may be shown once.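 Cells were grown in 96-well plates and exposed to each compound for 48 hours at five concentrations; endpoints were interpolated linearly between bracketing concentrations, or set to the highest concentration if not reached. GI50 is the concentration that inhibits growth by half. TGI denotes the concentration required for complete inhibition of growth.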

Test systems include U251 CNS; UACC-257 melanoma; BT-549 breast; SK-MEL-28 melanoma; SNB-75 CNS; HCT-116 colon; COLO 205 colon; NCI-H522 lung; HCT-15 colon; HCC-2998 colon.
Holding throughout (test): inhibition of tumour cell growth, NCI panel, 48 h

Regarding `COc1ccc(C2=Nc3c(nc(OC)[nH]c3=O)NC(c3ccccc3)C2)cc1` (stereo not given), the TGI in the assay with U251 CNS was 65.6 µM; with UACC-257 melanoma it was over 100 µM; in the assay on BT-549 breast, over 100 µM; in the assay with SK-MEL-28 melanoma, 42.7 µM; in the assay on SNB-75 CNS, 58.5 µM; with HCT-116 colon it was over 100 µM. Besides, the TGI in the assay on COLO 205 colon was 50.3 µM; in the assay on NCI-H522 lung, over 100 µM.

With `CC1=CC(=O)CC2(C)CCC(C(C)CC(=O)CC(C)C)CC12OO` (stereo not given), the TGI in the assay with U251 CNS is 31.4 µM and 33.1 µM; in the assay with HCT-15 colon, 30.1 µM and > 100 µM; with UACC-257 melanoma, 31.5 µM and 33 µM; with SK-MEL-28 melanoma it was 28.5 µM and 32.5 µM; with SNB-75 CNS, 44.9 µM and > 100 µM; in the assay on HCT-116 colon it was 30.2 µM and 29.7 µM. Besides, the TGI in the assay on COLO 205 colon is 27.8 µM and 34.8 µM; in the assay on NCI-H522 lung, 19.5 µM and 26.9 µM. For the same compound, the GI50 is 16.5 µM and 35.3 µM in the assay on HCT-15 colon; 19.8 µM and 55.7 µM in the assay with SNB-75 CNS; 4.8 µM and 12.6 µM in the assay with NCI-H522 lung.

Take `Clc1ccc(Cl)c(N=Nc2cc3c4c(c2)CCN4CCC3)c1`: the TGI with U251 CNS, with HCT-15 colon, with UACC-257 melanoma, with HCC-2998 colon, in the assay with SK-MEL-28 melanoma and in the assay on SNB-75 CNS was over 10 µM each time. Also, the TGI in the assay with HCT-116 colon, in the assay on COLO 205 colon and in the assay on NCI-H522 lung was over 10 µM in each case.

Turning to `CC(C)c1cccc(C(C)C)c1NC(=O)C(=O)Cc1nc2ccc([N+](=O)[O-])cc2[nH]c1=O`, the TGI is 48.9 µM with HCT-15 colon; over 100 µM in the assay with UACC-257 melanoma; over 100 µM in the assay with HCC-2998 colon; over 100 µM in the assay with SK-MEL-28 melanoma; over 100 µM in the assay with SNB-75 CNS; over 100 µM with HCT-116 colon. In addition, the TGI was over 100 µM in the assay on COLO 205 colon and 54.4 µM in the assay with NCI-H522 lung.

Turning to `COc1cc2ccc3c4ccccc4cnc3c2cc1OC`, the TGI in the assay with U251 CNS, with HCT-15 colon, with UACC-257 melanoma, in the assay on HCC-2998 colon, in the assay on SK-MEL-28 melanoma and in the assay with SNB-75 CNS was over 100 µM in each case. Also, the TGI with HCT-116 colon, with COLO 205 colon and in the assay on NCI-H522 lung was over 100 µM in each case.

`[N-]=[N+]=Nc1ccccc1-c1ccccc1[N+](=O)[O-]`: the TGI is over 100 µM with U251 CNS; over 100 µM with HCT-15 colon; 71.7 µM in the assay with UACC-257 melanoma; over 100 µM in the assay with BT-549 breast; over 100 µM with SK-MEL-28 melanoma; over 100 µM in the assay with SNB-75 CNS. For the same compound, the figures for the TGI with HCT-116 colon and in the assay on NCI-H522 lung were over 100 µM and 45.4 µM, respectively.

As to `COC(=O)C(=O)C(C(=O)OC)C(=O)C(=O)Nc1c(C)cccc1C` (stereo not given), the TGI with U251 CNS, in the assay with HCT-15 colon, with UACC-257 melanoma, in the assay on HCC-2998 colon, with SK-MEL-28 melanoma and in the assay with SNB-75 CNS was over 100 µM throughout. For the same compound, the TGI in the assay on HCT-116 colon, in the assay with COLO 205 colon and with NCI-H522 lung was over 100 µM in each case.

In the case of `CC(=O)OI1NC(=O)c2ccccc21`, the TGI in the assay on U251 CNS, in the assay with HCT-15 colon, in the assay with SK-MEL-28 melanoma, in the assay on SNB-75 CNS, in the assay with HCT-116 colon and in the assay with COLO 205 colon was over 100 µM in each case. The compound further had a TGI with NCI-H522 lung of over 100 µM.

Regarding `Cc1ccc(S(=O)c2cccs2)cc1` (stereo not given), the TGI in the assay on U251 CNS, in the assay with HCT-15 colon, in the assay on UACC-257 melanoma, in the assay on BT-549 breast, in the assay on SK-MEL-28 melanoma and with HCT-116 colon was over 100 µM in each case. In the assay on COLO 205 colon, this compound registered a TGI of over 100 µM.

In the case of `CO/C(N)=C(\C#N)N=Cc1ccc2ccccc2c1`, the TGI in the assay on U251 CNS is over 100 µM; in the assay on UACC-257 melanoma, 91.3 µM; in the assay on BT-549 breast, over 100 µM; in the assay with SK-MEL-28 melanoma, over 100 µM; in the assay with SNB-75 CNS it was over 100 µM; in the assay on HCT-116 colon it was over 100 µM. The TGI in the assay on COLO 205 colon is 51.8 µM; with NCI-H522 lung, over 100 µM.

For the compound `CC1(C)CCN2C(=O)C34CCCC3CC21S4` (stereo not given), the TGI in the assay with U251 CNS, in the assay with HCT-15 colon, in the assay with UACC-257 melanoma, with BT-549 breast, in the assay on SK-MEL-28 melanoma and with HCT-116 colon was over 100 µM in each case. Further, the TGI in the assay on COLO 205 colon and in the assay with NCI-H522 lung was over 100 µM in each case.

Take `COC(=O)c1ccc2c(c1)CC1(C2)Cc2cc3c(cc2C1)CCC3`: the TGI in the assay on U251 CNS, with HCT-15 colon, in the assay with UACC-257 melanoma, in the assay on HCC-2998 colon, in the assay on SK-MEL-28 melanoma and in the assay on SNB-75 CNS was over 100 µM each time. In addition, the TGI with HCT-116 colon and in the assay with NCI-H522 lung was over 100 µM in each case.

Regarding `Nc1nc2c(N)cc(C(F)(F)F)cc2nc1-c1ccccc1`, the TGI was over 100 µM with U251 CNS; over 100 µM in the assay on HCT-15 colon; over 100 µM in the assay on UACC-257 melanoma; over 100 µM in the assay with HCC-2998 colon; over 100 µM in the assay with SK-MEL-28 melanoma; 93.5 µM in the assay on SNB-75 CNS. Besides, the TGI with HCT-116 colon, in the assay with COLO 205 colon and in the assay on NCI-H522 lung was over 100 µM each time.

Take `COC(=O)C1(NC(=O)C(Cc2ccccc2)N(C(=O)OC(C)(C)C)C(=O)OC(C)(C)C)CCCC1` (stereo not given): the TGI in the assay on U251 CNS, in the assay on HCT-15 colon, in the assay with HCC-2998 colon, in the assay on SK-MEL-28 melanoma, with SNB-75 CNS and with HCT-116 colon was over 100 µM in each case. Moreover, in the assay on COLO 205 colon, the TGI is over 100 µM.

For `COC(=O)C1CC2C=CC=CC(=O)C2(C)C1` (stereo not given), the TGI was over 100 µM in the assay on U251 CNS; over 100 µM in the assay with HCT-15 colon; over 100 µM in the assay on UACC-257 melanoma; 86.3 µM with HCT-116 colon; over 100 µM in the assay on COLO 205 colon.

`CNC(=O)c1n[nH]n(C2CCCCC2)c1=S`: the TGI with U251 CNS, in the assay on HCT-15 colon, with UACC-257 melanoma, in the assay with HCC-2998 colon, with SK-MEL-28 melanoma and in the assay with SNB-75 CNS was over 100 µM each time. Further, the TGI in the assay with HCT-116 colon, in the assay on COLO 205 colon and with NCI-H522 lung was over 100 µM in each case.
